Source: US8748426B2, “Inhibitors of diacylglycerol acyl transferase” (Piramal Enterprises Limited, priority 2009, dated 2014)

What follows are molecules tested against T1, hDGAT1 (Homo sapiens, UniProt O75907) (assay: In-vitro DGAT1 assay (14C oleoyl CoA, hDGAT1 microsomes from Sf9 cells)). Settings: at 1 μM.
T1 sequence (O75907 1-488): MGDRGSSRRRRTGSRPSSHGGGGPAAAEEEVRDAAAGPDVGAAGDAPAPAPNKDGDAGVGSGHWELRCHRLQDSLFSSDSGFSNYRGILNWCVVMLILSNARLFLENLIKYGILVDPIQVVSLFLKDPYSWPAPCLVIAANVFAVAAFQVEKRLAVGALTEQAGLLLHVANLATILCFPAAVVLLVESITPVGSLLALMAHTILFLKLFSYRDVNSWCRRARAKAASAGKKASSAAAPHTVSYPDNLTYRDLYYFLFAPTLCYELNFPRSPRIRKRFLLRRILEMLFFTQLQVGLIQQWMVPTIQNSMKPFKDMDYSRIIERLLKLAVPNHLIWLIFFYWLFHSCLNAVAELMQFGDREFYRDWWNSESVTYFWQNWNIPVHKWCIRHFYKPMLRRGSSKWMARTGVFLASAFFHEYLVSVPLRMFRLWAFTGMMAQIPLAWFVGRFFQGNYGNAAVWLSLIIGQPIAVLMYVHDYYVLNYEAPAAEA

| Compound | % Inhibition of hDGAT1 |
| --- | --- |
| O=C(Nc1ccc(-c2ccc3c(c2)C(=O)N(C2(C(=O)O)CCC2)C3)cc1)c1ccc(-c2ccccc2)cc1 [Example 576, 1-(6-(4-([1,1′-Biphenyl]-4-ylcarboxamido)phenyl)-1-oxoisoindolin-2-yl)cyclo butanecarboxylic acid] | ++ (>50% Inhibition) |
| O=C(Nc1ccc(-c2ccc3c(c2)C(=O)N(C2(C(=O)O)CCCC2)C3)cc1)c1ccc(-c2ccccc2)cc1 [Example 529, 1-(6-(4-([1,1′-Biphenyl]-4-ylcarboxamido)phenyl)-1-oxoisoindolin-2-yl)cyclopentane carboxylic acid] | ++ (>50% Inhibition) |
| CC(C)[C@@H](C(=O)O)N1Cc2ccc(-c3ccc(NC(=O)C4C5CC6CC(C5)CC4C6)cc3)cc2C1=O (stereo partly drawn) [Example 190, (S)-2-(6-(4-(Adamantyl-2-carboxamido)phenyl)-1-oxoisoindolin-2-yl)-3-methylbutanoic acid] | ++ (>50% Inhibition) |
| O=C(Nc1ccc(-c2ccc3c(c2)C(=O)N(C2(C(=O)O)CC2)C3)cc1)c1ccc(-c2ccccc2)cc1 [Example 586, 1-(6-(4-([1,1′-Biphenyl]-4-ylcarboxamido)phenyl)-1-oxoisoindolin-2-yl)cyclopropanecarboxylic acid] | ++ (>50% Inhibition) |

Same assay, conditions: read-out: % Inhibition of hDGAT1

| Compound | inhibition at 1 µM [%] |
| --- | --- |
| CC(C)[C@@H](C(=O)O)N1Cc2ccc(-c3ccc(NC(=S)Nc4ccc(C#N)cc4)cc3)cc2C1=O [Example 68, (S)-2-(6-(4-(3-(4-Cyanophenyl)thioureido)phenyl)-1-oxoisoindolin-2-yl)-3-methyl butanoic acid] | > 50 |
| CC(C)[C@@H](C(=O)O)N1Cc2ccc(-c3ccc(NC(=O)Nc4ccccc4Oc4ccccc4)cc3)cc2C1=O [Example 48, (S)-3-Methyl-2-(1-oxo-6-(4-(3-(2-phenoxyphenyl)ureido)phenyl)isoindolin-2-yl)butanoic acid] | > 50 |
| CC(C)[C@@H](C(=O)O)N1Cc2ccc(-c3ccc(NC(=O)c4ccc(N5CCCCC5)nc4)cc3)cc2C1=O [Example 215, (S)-3-Methyl-2-(1-oxo-6-(4-(6-(piperidin-1-yl)nicotinamido)phenyl)isoindolin-2-yl)butanoic acid] | > 50 |
| CC(C)[C@@H](C(=O)O)N1Cc2ccc(-c3ccc(NC(=O)Nc4ccc(C(F)(F)F)cc4)cc3)cc2C1=O [Example 36, (S)-3-Methyl-2-(1-oxo-6-(4-(3-(4-(trifluoromethyl)phenyl)ureido)phenyl)isoindolin-2-yl)butanoic acid] | > 50 |
| CC(C)[C@@H](C(=O)O)N1Cc2ccc(-c3ccc(NC(=O)c4ccc(Cl)cc4Cl)cc3)cc2C1=O [Example 134, (S)-2-(6-(4-(2,4-Dichlorobenzamido)phenyl)-1-oxoisoindolin-2-yl)-3-methyl butanoic acid] | 10 to 50 |
| CC(C)[C@@H](C(=O)O)N1Cc2cc(-c3ccc(NC(=O)Nc4ccc(C#N)cc4)cc3)ccc2C1=O [Example 253, (S)-2-(5-(4-(3-(4-Cyanophenyl)ureido)phenyl)-1-oxoisoindolin-2-yl)-3-methylbutanoic acid] | > 50 |
| COc1ccc(S(=O)(=O)Nc2ccc(-c3ccc4c(c3)C(=O)N([C@H](C(=O)O)C(C)C)C4)cc2)cc1OC [Example 86, (S)-2-(6-(4-(3,4-Dimethoxyphenylsulfonamido)phenyl)-1-oxoisoindolin-2-yl)-3-methylbutanoic acid] | 10 to 50 |
| CCCCc1ccc(C(=O)Nc2ccc(-c3ccc4c(c3)C(=O)N([C@H](C(=O)O)C(C)C)C4)cc2)nc1 [Example 649, (S)-2-(6-(4-(5-Butylpicolinamido)phenyl)-1-oxoisoindolin-2-yl)-3-methylbutanoic acid] | > 50 |
| CC(C)[C@@H](C(=O)O)N1Cc2ccc(-c3ccc(NC(=O)NC4CCCCC4)cc3)cc2C1=O [Example 34, (S)-2-(6-(4-(3-Cyclohexylureido)phenyl)-1-oxoisoindolin-2-yl)-3-methylbutanoic acid] | > 50 |
| CC(C)[C@@H](C(=O)O)N1Cc2ccc(-c3ccc(NS(=O)(=O)C(C)C)cc3)cc2C1=O [Example 96, (S)-3-Methyl-2-(6-(4-(1-methylethylsulfonamido)phenyl)-1-oxoisoindolin-2-yl)butanoic acid] | 10 to 50 |
| Cc1ccc(NC(=O)Nc2ccc(-c3ccc4c(c3)C(=O)N([C@H](C(=O)O)C(C)C)C4)cc2F)cc1C [Example 436, (S)-2-(6-(4-(3-(3,4-Dimethylphenyl)ureido)-3-fluorophenyl)-1-oxoisoindolin-2-yl)-3-methylbutanoic acid] | > 50 |
| CC(C)[C@@H](C(=O)O)N1Cc2ccc(-c3ccc(NC(=O)c4ccc(OC(F)(F)F)cc4)cc3)cc2C1=O [Example 158, (S)-3-Methyl-2-(1-oxo-6-(4-(4-(trifluoromethoxy)benzamido)phenyl)isoindolin-2-yl)butanoic acid] | > 50 |
| Cc1cc(NC(=O)c2ccc(C(C)(C)C)cc2)ccc1-c1ccc2c(c1)C(=O)N([C@H](C(=O)O)C(C)C)C2 [Example 468, (S)-2-(6-(4-(4-tert-Butylbenzamido)-2-methylphenyl)-1-oxoisoindolin-2-yl)-3-methylbutanoic acid] | > 50 |
| CC(C)[C@@H](C(=O)O)N1Cc2ccc(-c3ccc(NC(=O)c4ccc(-c5nccs5)cc4)cc3)cc2C1=O [Example 647, (S)-3-Methyl-2-(1-oxo-6-(4-(4-(thiazol-2-yl)benzamido)phenyl)isoindolin-2-yl)butanoic acid] | > 50 |

Results, then the molecule that gave them:

| inhibition at 1 µM [%] | Compound |
| --- | --- |
| 10 to 50 | CC(C)[C@@H](C(=O)O)N1Cc2cc(-c3ccc(NS(=O)(=O)c4cccc(Cl)c4)cc3)ccc2C1=O [Example 295, (S)-2-(5-(4-(3-Chlorophenylsulfonamido)phenyl)-1-oxoisoindolin-2-yl)-3-methyl butanoic acid] |
| 10 to 50 | CCCCCc1ccc(C(=O)Nc2ccc(-c3ccc4c(c3)CN([C@H](C(=O)O)C(C)C)C4=O)cc2)cc1 [Example 325, (S)-3-Methyl-2-(1-oxo-5-(4-(4-pentylbenzamido)phenyl)isoindolin-2-yl)butanoic acid] |
| > 50 | O=C(Nc1ccc(-c2ccc3c(c2)C(=O)N(C2CCCC(C(=O)O)C2)C3)cc1)c1ccc(Cl)cc1 (stereo not shown) [Example 549, 3-(6-(4-(4-Chlorobenzamido)phenyl)-1-oxoisoindolin-2-yl)cyclohexane carboxylic acid] |
| 10 to 50 | CC(C)[C@@H](C(=O)O)N1Cc2cc(-c3ccc(NS(=O)(=O)c4ccc(F)cc4F)cc3)ccc2C1=O [Example 291, (S)-2-(5-(4-(2,4-Difluorophenylsulfonamido)phenyl)-1-oxoisoindolin-2-yl)-3-methylbutanoic acid] |
| 10 to 50 | COc1cccc(NC(=S)Nc2ccc(-c3ccc4c(c3)CN([C@H](C(=O)O)C(C)C)C4=O)cc2)c1 [Example 263, (S)-2-(5-(4-(3-(3-Methoxyphenyl)thioureido)phenyl)-1-oxoisoindolin-2-yl)-3-methyl butanoic acid] |
| 10 to 50 | COc1ccc(S(=O)(=O)Nc2ccc(-c3ccc4c(c3)CN([C@H](C(=O)O)C(C)C)C4=O)cc2)cc1OC [Example 293, (S)-2-(5-(4-(3,4-Dimethoxyphenylsulfonamido)phenyl)-1-oxoisoindolin-2-yl)-3-methylbutanoic acid] |
| > 50 | CC(C)[C@@H](C(=O)O)N1Cc2ccc(-c3ccc(NC(=O)Nc4cc(Cl)ccc4Oc4ccccc4)cc3)cc2C1=O [Example 46, (S)-2-(6-(4-(3-(5-Chloro-2-phenoxyphenyl)ureido)phenyl)-1-oxoisoindolin-2-yl)-3-methylbutanoic acid] |
| 10 to 50 | COc1cc(NC(=O)c2ccc(OC(F)(F)F)cc2)ccc1-c1ccc2c(c1)C(=O)N([C@H](C(=O)O)C(C)C)C2 [Example 464, (S)-2-(6-(2-Methoxy-4-(4-(trifluoromethoxy)benzamido)phenyl)-1-oxoisoindolin-2-yl)-3-methylbutanoic acid] |
| > 50 | CC(C)[C@@H](C(=O)O)N1Cc2ccc(-c3ccc(NC(=O)c4ccc(Cl)cc4)cc3)cc2C1=O [Example 114, (S)-2-(6-(4-(4-Chlorobenzamido)phenyl)-1-oxoisoindolin-2-yl)-3-methylbutanoic acid] |
| > 50 | CC(C)[C@@H](C(=O)O)N1Cc2ccc(-c3ccc(NC(=O)c4cccc(Cl)c4)cc3)cc2C1=O [Example 108, (S)-2-(6-(4-(3-Chlorobenzamido)phenyl)-1-oxoisoindolin-2-yl)-3-methylbutanoic acid] |
| 10 to 50 | CC(C)[C@@H](C(=O)O)N1Cc2ccc(-c3ccc(NC(=S)Nc4ccccc4F)cc3)cc2C1=O [Example 52, (S)-2-(6-(4-(3-(2-Fluorophenyl)thioureido)phenyl)-1-oxoisoindolin-2-yl)-3-methylbutanoic acid] |
| 10 to 50 | CC(C)[C@@H](C(=O)O)N1Cc2ccc(-c3ccc(NC(=O)Nc4ccc(F)c(F)c4)cc3C(F)(F)F)cc2C1=O [Example 418, (S)-2-(6-(4-(3-(3,4-Difluorophenyl)ureido)-2-(trifluoromethyl)phenyl)-1-oxoisoindolin-2-yl)-3-methylbutanoic acid] |
| > 50 | CC(C)[C@@H](C(=O)O)N1Cc2cc(-c3ccc(NC(=O)Nc4cccc(C#N)c4)cc3)ccc2C1=O [Example 255, (S)-2-(5-(4-(3-(3-Cyanophenyl)ureido)phenyl)-1-oxoisoindolin-2-yl)-3-methylbutanoic acid] |
